Data published in US20140187548A1, “6 SUBSTITUTED IMIDAZOPYRAZINES FOR USE AS MPS-1 AND TKK INHIBITORS IN THE TREATMENT OF HYPERPROLIFERATIVE DISORDERS” (BAYER INTELLECTUAL PROPERTY GMBH, priority 2010, published 2014).

target: T1, human kinase Mps-1 (Homo sapiens, UniProt P33981); assay: Mps-1 kinase assay (TR-FRET); format: biochemical; conditions: N-terminally GST-tagged human full length recombinant Mps-1; 10 μM ATP; 1 μM peptide substrate; 15 min pre-incubation; 60 min at 22° C.
T1 construct: N-terminally GST-tagged human full length recombinant Mps-1 kinase; GST (N); purchased Invitrogen, Karslruhe, Germany PV4071
T1 sequence (P33981 1-857): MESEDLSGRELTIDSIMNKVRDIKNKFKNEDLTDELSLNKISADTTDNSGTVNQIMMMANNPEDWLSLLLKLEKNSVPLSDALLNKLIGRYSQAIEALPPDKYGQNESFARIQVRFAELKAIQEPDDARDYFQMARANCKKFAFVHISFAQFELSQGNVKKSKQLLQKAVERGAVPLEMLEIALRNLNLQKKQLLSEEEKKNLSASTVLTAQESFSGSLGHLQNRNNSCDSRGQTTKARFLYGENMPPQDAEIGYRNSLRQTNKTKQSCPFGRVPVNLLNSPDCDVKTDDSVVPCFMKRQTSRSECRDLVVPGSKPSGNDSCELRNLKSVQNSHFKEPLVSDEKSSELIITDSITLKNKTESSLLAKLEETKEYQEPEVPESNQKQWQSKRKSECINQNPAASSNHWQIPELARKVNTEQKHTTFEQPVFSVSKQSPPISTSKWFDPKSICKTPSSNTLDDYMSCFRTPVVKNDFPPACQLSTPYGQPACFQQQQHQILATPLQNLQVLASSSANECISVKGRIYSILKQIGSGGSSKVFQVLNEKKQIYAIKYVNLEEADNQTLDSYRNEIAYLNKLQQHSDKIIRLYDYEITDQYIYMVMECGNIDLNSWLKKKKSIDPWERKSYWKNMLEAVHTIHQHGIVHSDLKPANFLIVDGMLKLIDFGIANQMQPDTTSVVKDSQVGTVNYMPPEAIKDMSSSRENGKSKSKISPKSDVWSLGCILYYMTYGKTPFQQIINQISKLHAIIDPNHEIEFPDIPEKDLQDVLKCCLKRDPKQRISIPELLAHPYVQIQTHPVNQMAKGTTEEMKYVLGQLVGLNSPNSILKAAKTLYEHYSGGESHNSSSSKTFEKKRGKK
How it was run: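 N-terminally GST-tagged full-length recombinant human Mps-1, about 1 nM final, phosphorylates a biotinylated peptide. Product detected by TR-FRET from Eu-anti-phospho-Ser/Thr antibody to streptavidin-XLent after 1 h at 22° C.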

Row | IC50 [nM] | Structure (SMILES)
1 | 11.2 | O=C(NC1CC1)c1ccc(-c2cnc3c(NCCCCN4CCCC4)nc(-c4ccccc4)cn23)cc1 [Example 2-45, N-cyclopropyl-4-(6-phenyl-8-{[4-(pyrrolidin-1-yl)butyl]amino}imidazo[1,2-a]pyrazin-3-yl) benzamide]
2 | 3.5 | COCCCNc1nc(-c2ccccc2)cn2c(-c3ccc(C(=O)NC4CC4)cc3)cnc12 [Example 2-46, N-cyclopropyl-4-{8-[(3-methoxypropyl)amino]-6-phenylimidazo[1,2-a]pyrazin-3-yl}benzamide]
3 | 20 | O=C(NC1CC1)c1ccc(-c2cnc3c(NCCN4CCNC4=O)nc(-c4ccccc4)cn23)cc1 [Example 2-47, N-cyclopropyl-4-(8-{[2-(2-oxoimidazolidin-1-yl)ethyl]amino}-6-phenylimidazo[1,2-a]pyrazin-3-yl)benzamide]
4 | 3.4 | C[S+]([O-])CCNc1nc(-c2ccccc2)cn2c(-c3ccc(C(=O)NC4CC4)cc3)cnc12 (centres unmarked) [Example 2-48, N-cyclopropyl-4-(8-{[2-(methylsulfinyl)ethyl]amino}-6-phenylimidazo[1,2-a]pyrazin-3-yl)benzamide]
5 | 32.2 | CNC(=O)CNc1nc(-c2ccccc2)cn2c(-c3ccc(C(=O)NC4CC4)cc3)cnc12 [Example 2-49, N-cyclopropyl-4-(8-{[2-(methylamino)-2-oxoethyl]amino}-6-phenylimidazo[1,2-a]pyrazin-3-yl)benzamide]
6 | 8 | O=C(NC1CC1)c1ccc(-c2cnc3c(NCCc4cccnc4)nc(-c4ccccc4)cn23)cc1 [Example 2-50, N-cyclopropyl-4-(6-phenyl-8-{[2-(pyridin-3-yl)ethyl]amino}imidazo[1,2-a]pyrazin-3-yl) benzamide]
7 | 2.4 | O=C(NC1CC1)c1ccc(-c2cnc3c(NCCCC(F)(F)F)nc(-c4ccccc4)cn23)cc1 [Example 2-51, N-cyclopropyl-4-{6-phenyl-8-[(4,4,4-trifluorobutyl)amino]imidazo[1,2-a]pyrazin-3-yl}benzamide]
8 | 3.1 | O=C(NC1CC1)c1ccc(-c2cnc3c(NCC(F)F)nc(-c4ccccc4)cn23)cc1 [Example 2-52, N-cyclopropyl-4-{8-[(2,2-difluoroethyl)amino]-6-phenylimidazo[1,2-a]pyrazin-3-yl}benzamide]
9 | 5.6 | Cn1ccc(CNc2nc(-c3ccccc3)cn3c(-c4ccc(C(=O)NC5CC5)cc4)cnc23)n1 [Example 2-53, N-cyclopropyl-4-(8-{[(1-methyl-1H-pyrazol-3-yl)methyl]amino}-6-phenylimidazo [1,2-a]pyrazin-3-yl)benzamide]
10 | 1.5 | Cn1nccc1CNc1nc(-c2ccccc2)cn2c(-c3ccc(C(=O)NC4CC4)cc3)cnc12 [Example 2-54, N-cyclopropyl-4-(8-{[(1-methyl-1H-pyrazol-5-yl)methyl]amino}-6-phenylimidazo[1,2-a]pyrazin-3-yl)benzamide]
11 | 2.7 | O=C(NC1CC1)c1ccc(-c2cnc3c(NCc4cc[nH]n4)nc(-c4ccccc4)cn23)cc1 [Example 2-55, N-cyclopropyl-4-{6-phenyl-8-[(1H-pyrazol-3-ylmethyl)amino]imidazo[1,2-a]pyrazin-3-yl} benzamide]
12 | 1.3 | Cn1cc(CNc2nc(-c3ccccc3)cn3c(-c4ccc(C(=O)NC5CC5)cc4)cnc23)cn1 [Example 2-56, N-cyclopropyl-4-(8-{[(1-methyl-1H-pyrazol-4-yl)methyl]amino}-6-phenylimidazo[1,2-a]pyrazin-3-yl)benzamide]
13 | 2.3 | CCOC(C)CNc1nc(-c2ccccc2)cn2c(-c3ccc(C(=O)NC4CC4)cc3)cnc12 (centres unmarked) [Example 2-57, N-cyclopropyl-4-{8-[(2-ethoxypropyl)amino]-6-phenylimidazo[1,2-a]pyrazin-3-yl}benzamide]
14 | 2.9 | CCC(CNc1nc(-c2ccccc2)cn2c(-c3ccc(C(=O)NC4CC4)cc3)cnc12)OC (centres unmarked) [Example 2-58, N-cyclopropyl-4-{8-[(2-methoxybutyl)amino]-6-phenylimidazo[1,2-a]pyrazin-3-yl}benzamide]
15 | 6.4 | O=C(NC1CC1)c1ccc(-c2cnc3c(NCc4sccc4Cl)nc(-c4ccccc4)cn23)cc1 [Example 2-59, 4-(8-{[(3-chlorothiophen-2-yl)methyl]amino}-6-phenylimidazo [1,2-a]pyrazin-3-yl)-N-cyclopropylbenzamide]
16 | 4.9 | O=C(NC1CC1)c1ccc(-c2cnc3c(NCc4ccc(Cl)s4)nc(-c4ccccc4)cn23)cc1 [Example 2-60, 4-(8-{[(5-chlorothiophen-2-yl)methyl]amino}-6-phenylimidazo [1,2-a]pyrazin-3-yl)-N-cyclopropylbenzamide]

Row | IC50 [nM] | Structure (SMILES)
17 | 12.1 | N#Cc1cccc(CNc2nc(-c3ccccc3)cn3c(-c4ccc(C(=O)NC5CC5)cc4)cnc23)c1 [Example 2-61, 4-{8-[(3-cyanobenzyl)amino]-6-phenylimidazo[1,2-a]pyrazin-3-yl}-N-cyclopropylbenzamide]
18 | 1.1 | O=C(NC1CC1)c1ccc(-c2cnc3c(NCCCF)nc(-c4ccccc4)cn23)cc1 [Example 2-62, N-cyclopropyl-4-{8-[(3-fluoropropyl)amino]-6-phenylimidazo[1,2-a]pyrazin-3-yl}benzamide]
19 | 5.6 | O=C(NC1CC1)c1ccc(-c2cnc3c(NCCc4nccs4)nc(-c4ccccc4)cn23)cc1 [Example 2-63, N-cyclopropyl-4-(6-phenyl-8-{[2-(1,3-thiazol-2-yl)ethyl]amino}imidazo[1,2-a]pyrazin-3-yl)benzamide]
20 | 1 | NS(=O)(=O)CCNc1nc(-c2ccccc2)cn2c(-c3ccc(C(=O)NC4CC4)cc3)cnc12 [Example 2-64, N-cyclopropyl-4-{6-phenyl-8-[(2-sulfamoylethyl)amino]imidazo[1,2-a]pyrazin-3-yl} benzamide]
21 | 1.3 | O=C(NC1CC1)c1ccc(-c2cnc3c(NCC4CCCCO4)nc(-c4ccccc4)cn23)cc1 (centres unmarked) [Example 2-65, N-cyclopropyl-4-{6-phenyl-8-[(tetrahydro-2H-pyran-2-ylmethyl)amino]imidazo[1,2-a]pyrazin-3-yl}benzamide]
22 | 6.2 | O=C(NC1CC1)c1ccc(-c2cnc3c(NCC4CCCCC4)nc(-c4ccccc4)cn23)cc1 [Example 2-66, 4-{8-[(Cyclohexylmethyl)amino]-6-phenylimidazo[1,2-a]pyrazin-3-yl}-N-cyclopropylbenzamide]
23 | 7.2 | NCCCCNc1nc(-c2ccccc2)cn2c(-c3ccc(C(=O)NC4CC4)cc3)cnc12 [Example 2-67]
24 | 17.4 | NCCCNc1nc(-c2ccccc2)cn2c(-c3ccc(C(=O)NC4CC4)cc3)cnc12 [Example 2-68]
25 | 54.8 | NCCNc1nc(-c2ccccc2)cn2c(-c3ccc(C(=O)NC4CC4)cc3)cnc12 [Example 2-69, 4-{8-[(2-Aminoethyl)amino]-6-phenylimidazo[1,2-a]pyrazin-3-yl}-N-cyclopropylbenzamide]
26 | 4.1 | O=C(NC1CC1)c1ccc(-c2cnc3c(NCCCn4ccnc4)nc(-c4ccccc4)cn23)cc1 [Example 2-71, N-cyclopropyl-4-(8-{[3-(1H-imidazol-1-yl)propyl]amino}-6-phenylimidazo[1,2-a]pyrazin-3-yl)benzamide]
27 | 2.5 | O=C(NC1CC1)c1ccc(-c2cnc3c(NCC4CCCC4)nc(-c4ccccc4)cn23)cc1 [Example 2-72, 4-{8-[(Cyclopentylmethyl)amino]-6-phenylimidazo[1,2-a]pyrazin-3-yl}-N-cyclopropylbenzamide]
28 | 2.3 | O=C(NC1CC1)c1ccc(-c2cnc3c(NCC4CCC4)nc(-c4ccccc4)cn23)cc1 [Example 2-73, 4-{8-[(Cyclobutylmethyl)amino]-6-phenylimidazo[1,2-a]pyrazin-3-yl}-N-cyclopropylbenzamide]
29 | 3.7 | O=C(NC1CC1)c1ccc(-c2cnc3c(NCc4ccsc4)nc(-c4ccccc4)cn23)cc1 [Example 2-74, N-cyclopropyl-4-{6-phenyl-8-[(3-thienylmethyl)amino]imidazo[1,2-a]pyrazin-3-yl}benzamide]
30 | 3.2 | O=C(NC1CC1)c1ccc(-c2cnc3c(NCc4ccco4)nc(-c4ccccc4)cn23)cc1 [Example 2-75, N-cyclopropyl-4-{8-[(2-furylmethyl)amino]-6-phenylimidazo[1,2-a]pyrazin-3-yl}benzamide]
31 | 2.8 | O=C(NC1CC1)c1ccc(-c2cnc3c(NCc4ccoc4)nc(-c4ccccc4)cn23)cc1 [Example 2-76, N-cyclopropyl-4-{8-[(3-furylmethyl)amino]-6-phenylimidazo[1,2-a]pyrazin-3-yl}benzamide]
32 | 2.5 | O=C(NC1CC1)c1ccc(-c2cnc3c(NCc4cccs4)nc(-c4ccccc4)cn23)cc1 [Example 2-77, N-cyclopropyl-4-{6-phenyl-8-[(2-thienylmethyl)amino]imidazo[1,2-a]pyrazin-3-yl}benzamide]
